Reference: patent US20200158737A1, “METHODS OF MEASURING UBIQUITIN-LIKE MODIFICATIONS” (Regents of the University of Minnesota, priority 2018, published 2020)
Residues, ends and D or L forms follow the SMILES beside them. *: point of attachment. Cbz = O=C(OCc1ccccc1)*

Tests used:
[1] = target: T1, bovine serum albumin (BSA) (Bos taurus, UniProt P02769); experiment: Ninhydrin test with BSA standard to evaluate AcGG-NHS labeling efficiency
T1 construct: purchased VWR
Experimental: To test the amine labeling efficiency of AcGG-NHS, three groups of samples were prepared—Blank: 100 μL of 9 M urea/1×PBS, Control: 0.1 mg BSA (5 μL of 20 mg/mL BSA) and 95 μL of 9 M urea/1×PBS, Test: 0.1 mg BSA (5 μL of 20 mg/mL BSA) and 95 μL of 9 M urea/1×PBS. First, samples in each groups were reduced with a final concentration of 5 mM TCEP and alkylated with a final concentration of 5 mM iodoacetamide at room temperature with shaking in dark for 30 min. Then, samples in the Test group were derivatized with AcGG-NHS following the procedure described below. Each group was followed by a reaction with ⅕ the volume of Ninhydrin reagent solution (0.35 g ninhydrin in 100 mL EtOH) at 85° C. with gentle stirring for 5 min. Absorbance of each sample was measured at 577 nm using NanoDrop spectrophotometer (Fisher).
Ten μg of proteins were dried in a Speed-Vac and resuspended in 10 μL of 9 M urea/PBS with pH adjusted to ˜8.5. AcGG-NHS stock solution was prepared by dissolving AcGG-NHS in 50% ACN/50% H2O mixture at a concentration of 100 mg/mL. One μL of AcGG-NHS stock solution was added to each sample and the mixture was vortexed for 45 min. The labeling was repeated for another two times. The reaction was quenched with 5% hydroxylamine (pH=6.0, 1.5 M) for 15 min. Each sample was diluted 6× with PBS and proteins were digested with trypsin for overnight at 37° C. […]

[2] = tested on: ubiquitination sites in histone-enriched fractions of 293T cells; experiment: IBAQ-Ub site-specific stoichiometric analysis of known Ub sites on acid-extracted histones from 293T cells treated with DMSO or MG132; assay type: cell-based, human
Experimental: 293T cells were treated with 5 μM MG132 or the equal volume of DMSO for 12 hours. Histone extraction was performed as described previously (D. Shechter, et al., Nat Protoc 2007, 2, 1445-1457). Briefly, the cells were harvested by trypsin digestion. The cell pellets were washed with cold PBS and then lysed in 0.5 mL Extraction Buffer (PBS+0.5% Triton X-100 (v/v)) with protease inhibitor cocktail. After centrifuge, the supernatant was discarded and the pellet was washed with Extraction Buffer again to remove residual supernatant solution in pellet. The pellet was re-suspended in 0.4 ml 0.4 N H2SO4 for acid extraction. After overnight incubation at 4° C., the supernatant was extracted and proteins were precipitated with a final concentration of 20% TCA (v/v), followed by cold acetone wash. The protein pellet was air dried and protein concentration was measured by the Bradford assay after solubilizing the pellet with water.
Ten μg of proteins were dried in a Speed-Vac and resuspended in 10 μL of 9 M urea/PBS with pH adjusted to ˜8.5. AcGG-NHS stock solution was prepared by dissolving AcGG-NHS in 50% ACN/50% H2O mixture at a concentration of 100 mg/mL. One μL of AcGG-NHS stock solution was added to each sample and the mixture was vortexed for 45 min. The labeling was repeated for another two times. The reaction was quenched with 5% hydroxylamine (pH=6.0, 1.5 M) for 15 min. Each sample was diluted 6× with PBS and proteins were digested with trypsin for overnight at 37° C. (enzyme-to-substrate ratio of 1:100 (w/w)). When a second digestion was needed, another protease (Glu-C or Asp-N) was added (enzyme to substrate ratio of 1:100 w/w) for overnight digestion at 37° C. Following digestion, peptides were desalted and then resuspended in 10 μL of 9M urea/PBS at a pH ˜8.5. Heavy Ac—NHS stock solution was prepared by dissolving heavy Ac—NHS in ACN at a concentration of 100 mg/mL. One μL of heavy Ac—NHS stock solution was added to each sample for 45-min labeling. The labeling was repeated for two more times and the reaction was quenched with 5% hydroxylamine (pH=6.0, 1.5 M) for 15 min. The peptides were desalted with stage tips (C18) prior to LCMS analysis (J. Rappsilber, et al., Nat Protoc 2007, 2, 1896-1906).
Mass spectrometry data were collected using an Orbitrap Fusion mass spectrometer (Thermo Scientific) with a Top-12 method. Samples were resolubilized in HPLC buffer A (0.1% formic acid in water, v/v) and injected onto a self-packed reversed-phase capillary HPLC column (15 cm×100 μm, ReproSil-Pur Basic C18, 2.5 μm, Dr. Maisch GmbH). Peptides were separated by a Proxeon Easy nLC 1000 Nano-UPLC system (Thermo Scientific) at a flow rate of 200 nL/min with a 56 min gradient of 7-32% HPLC buffer B (0.1% formic acid in acetonitrile, v/v). The Orbitrap Fusion mass spectrometer (Thermo Scientific) was operated in a positive polarity mode with ion transfer tube temp of 275° C. Precursor ions were acquired in Orbitrap with a resolution 60,000 at 200 m/z and a mass range of 380-1800 m/z. Dynamic exclusion was enabled with an exclusion duration of 15 s and a mass tolerance of ±25 ppm. Fragment ions were acquired in the linear ion trap with an isolation window of 1.6 m/z and high energy collisional dissociation (HCD) of 35%.
Mass spectra were processed with MaxQuant software (version 1.5.3.12) (J. Cox, M. Mann, Nat Biotechnol 2008, 26, 1367-1372). […]

[3] = sites quantified in both DMSO and MG132 treated samples, histone-enriched chromatin fractions of 293T cells

T1 sequence (P02769 25-607): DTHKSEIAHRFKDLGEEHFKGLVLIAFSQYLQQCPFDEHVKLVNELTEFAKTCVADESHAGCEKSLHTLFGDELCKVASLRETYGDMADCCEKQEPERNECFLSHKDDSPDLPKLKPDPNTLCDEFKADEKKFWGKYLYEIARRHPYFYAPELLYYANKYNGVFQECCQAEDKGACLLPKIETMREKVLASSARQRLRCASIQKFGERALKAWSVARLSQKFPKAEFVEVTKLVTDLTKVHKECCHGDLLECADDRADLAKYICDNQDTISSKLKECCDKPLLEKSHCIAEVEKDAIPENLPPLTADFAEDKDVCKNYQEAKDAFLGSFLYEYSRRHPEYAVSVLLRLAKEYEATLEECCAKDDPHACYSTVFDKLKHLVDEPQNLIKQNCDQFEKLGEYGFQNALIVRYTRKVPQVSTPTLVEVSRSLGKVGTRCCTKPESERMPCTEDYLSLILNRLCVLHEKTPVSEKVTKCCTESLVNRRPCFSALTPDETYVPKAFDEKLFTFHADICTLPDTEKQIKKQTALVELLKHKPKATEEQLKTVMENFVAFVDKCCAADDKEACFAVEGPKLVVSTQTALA

Structure (SMILES)	Ninhydrin reactivity on BSA after labeling ([1]; BSA after AcGG-NHS labeling, FIG. 9B-9C)	reactivity to derivatize amino groups ([1]; Ninhydrin test, BSA standard, absorbance at 577 nm)	abundance of histone H2B K117/K120 ubiquitination (Ub stoichiometry) ([2]; 293T cells, 5 μM MG132 12 hours, acid-extracted histones, stoichiometry 0.91% without MG132)	K48 polyubiquitin linkage stoichiometry on extracted histones ([2]; 293T cells, 5 μM MG132 12 hours, DMSO control 0.85%) [%]	increase of K48 ubiquitination stoichiometry versus DMSO control ([2]; 293T cells, MG132 treatment, extracted histones)	sites with decreased ubiquitination upon treatment [2, 3]	sites with increased Ub abundance upon treatment [2, 3]
CC(=O)NCC(=O)NCC(=O)ON1C(=O)CCC1=O [AcGG-NHS, Acetyl glycylglycine-N-hydroxysuccinamide] (HELM PEPTIDE1{[ac].G.G.[O=C1CCC(=O)N1O[*:1]]}$$$$V2.0)	complete loss of Ninhydrin reactivity	high reactivity					
CC(C)C[C@@H](C=O)NC(=O)[C@H](CC(C)C)NC(=O)[C@H](CC(C)C)NC(=O)OCc1ccccc1 [MG132] (Cbz-Leu-Leu-Leu-aldehyde)			below the detection limit	2.93	more than tripled	27 % of the sites	72 % of the sites
